Measured values published in publication PMC7045704 (Biochemistry, 2019).
Read-outs that look alike come from different tables or passages of the source.

Target: MhuD (Mycobacterium tuberculosis, UniProt P9WKH3)
Experiment: biochemical
Format: binding

MhuD, sequence (P9WKH3 whole entry): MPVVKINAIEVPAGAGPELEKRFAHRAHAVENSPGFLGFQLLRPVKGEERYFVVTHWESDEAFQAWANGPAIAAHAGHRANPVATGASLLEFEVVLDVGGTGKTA

Row | Structure (SMILES) | Kd [nM] | Kd (read-out: αBV Kd) [nM]
1 | C=CC1=C(C)C2=Cc3c(C=C)c(C)c4[n]3[Fe][n]3c(c(C)c(CCC(=O)O)c3=CC3=NC(=C4)C(C)=C3CCC(=O)O)=CC1=N2 [heme] | 6 ± 2.9 | 
2 | C=CC1=C(C)/C(=C/c2[nH]c(/C=C3N=C(/C=C4\NC(=O)C(C)=C4C=C)C(C)=C\3CCC(=O)O)c(CCC(=O)O)c2C)NC1=O [αBV, biliverdin IXα] |  | 36.4 ± 2.1
